Test results taken from US6969713B2, “Piperidine and piperazine acetamide derivatives” (AstraZeneca AB, priority 1999, dated 2005).

| SMILES | melting point |
| --- | --- |
| Cc1ccc(NS(C)(=O)=O)cc1NC(=O)CN1CC2CCC(C1)N2c1ncnc2scnc12 | 145 to 187 °C |
| O=C1Cc2c(cccc2NC(=O)CN2CC3CCC(C2)N3c2ncnc3sccc23)N1 | 265 °C (dec.) |
| Cc1c(F)cccc1NC(=O)CN1CC2CCC(C1)N2S(=O)(=O)c1ccccc1 | 168 to 169 °C |
| Cc1ccccc1NC(=O)CN1CC2CCC(C1)N2S(=O)(=O)c1cccc(C#N)c1 | 166 to 168 °C |
| COc1cccc(S(=O)(=O)N2C3CCC2CN(CC(=O)Nc2ccccc2C)C3)c1 | 163 to 165 °C |
| Cc1ccccc1NC(=O)CN1CC2CCC(C1)N2S(=O)(=O)c1cccc2nonc12 | 167 to 168 °C |
| Cc1ccccc1NC(=O)CN1CC2CCC(C1)N2S(=O)(=O)c1cccc2nsnc12 | 169 to 170 °C |
| Cc1ccccc1NC(=O)CN1CC2CCC(C1)N2S(=O)(=O)c1ccc(Cl)s1 | 150 to 152 °C |
| Cc1ccccc1NC(=O)CN1CC2CCC(C1)N2S(=O)(=O)c1ccccc1Cl | 170 to 171 °C |
| COc1ccc(Cl)cc1S(=O)(=O)N1C2CCC1CN(CC(=O)Nc1ccccc1C)C2 | 180 to 181 °C |
| CC(=O)Nc1ccc(S(=O)(=O)N2C3CCC2CN(CC(=O)Nc2ccccc2C)C3)cc1 | 205 to 206 °C |
| Cc1ccccc1NC(=O)CN1CC2CCC(C1)N2c1ncnc2scc(C)c12 | 199 to 200 °C |
| Cc1cccc(C)c1NC(=O)CN1CCN(c2ncnc3sccc23)C(C)C1 (racemic) [Example 1, (±)-N-(2,6-Dimethylphenyl)-2-(3-methyl-4-(thieno[2,3-d]pyrimidin-4-yl)piperazin-1-yl)acetamide] | 184 to 185 °C |
| Cc1cccc(C)c1NC(=O)CN1C[C@@H](C)N(c2ncnc3sccc23)[C@@H](C)C1 [Example 2, cis-[2-(3,5-Dimethyl-4-(thieno[2,3-d]pyrimidin-4-yl)piperazin-1-yl)]-N-(2,6-dimethylphenyl)acetamide] | 186 to 189 °C |
| Cc1c(CO)cccc1NC(=O)CN1C[C@@H](C)N(c2ncnc3sccc23)[C@@H](C)C1 [Example 4, cis-N-[3-Hydroxymethyl-2-methylphenyl]-2-(3,5-dimethyl-4-(thieno[2,3-d]pyrimidin-4-yl)piperazin-1-yl)acetamide] | 203 to 204 °C |
| Cc1ccccc1NC(=O)CN1C[C@@H](C)N(c2ncnc3sccc23)[C@@H](C)C1 [Example 6, cis-2-[3,5-Dimethyl-4-(thieno[2,3-d]pyrimidin-4-yl)piperazin-1-yl]-N-(2-methylphenyl)acetamide] | 174 to 175 °C |

| SMILES | melting point |
| --- | --- |
| C[C@@H]1CN(CC(=O)Nc2ccccc2Cl)C[C@H](C)N1c1ncnc2sccc12 [Example 7, cis-N-(2-Chlorophenyl)-2-[3,5-dimethyl-4-(thieno[2,3-d]pyrimidin-4-yl)piperazin-1-yl]acetamide] | 206 to 207 °C |
| C[C@@H]1CN(CC(=O)Nc2ccccc2Cl)C[C@H](C)N1c1ncnc2c1ncn2C [Example 8, cis-N-(2-Chlorophenyl)-2-[3,5-dimethyl-4-(9-methyl-9H-purin-6yl)piperazin-1-yl]acetamide] | 221 to 222 °C |
| C[C@@H]1CN(CC(=O)Nc2cccc3cnccc23)C[C@H](C)N1c1ncnc2sccc12 [Example 9, cis-2-(3,5-Dimethyl-4-(thieno[2,3-d]pyrimidin-4-yl)piperazin-1-yl)-N-(isoquinolin-5-yl)acetamide] | 213 to 216 °C |
| C[C@@H]1CN(CC(=O)Nc2cccc3ncccc23)C[C@H](C)N1c1ncnc2sccc12 [Example 10] | 194 to 195 °C |
| C[C@@H]1CN(CC(=O)Nc2ccccc2C(F)(F)F)C[C@H](C)N1c1ncnc2sccc12 [Example 12, cis-2-(3,5-Dimethyl-4-(thieno[2,3-d]pyrimidin-4-yl)piperazin-1-yl]-N-(2-trifluoromethylphenyl)acetamide] | 154 to 155 °C |
| Cc1cccnc1NC(=O)CN1C[C@@H](C)N(c2ncnc3sccc23)[C@@H](C)C1 [Example 13, cis-2-(3,5-Dimethyl-4-(thieno[2,3-d]pyrimidin-4-yl)piperazin-1-yl)-N-(3-methylpyridin-2-yl)acetamide] | 157 to 159 °C |
| C[C@@H]1CN(CC(=O)Nc2nccc3ccccc23)C[C@H](C)N1c1ncnc2sccc12 [Example 14, cis-2-(3,5-Dimethyl-4-(thieno[2,3-d]pyrimidin-4-yl)piperazin-1-yl)-N-(isoquinolin-1-yl)acetamide] | 206 to 207 °C |
| C[C@@H]1CN(CC(=O)Nc2nc3ccccc3n2C)C[C@H](C)N1c1ncnc2sccc12 [Example 49, cis-2-(3,5-Dimethyl-4-(thieno[2,3-d]pyrimidin-4-yl)piperazin-1-yl)-N-(1-methyl-1H-benzoimidazol-2-yl)acetamide] | 200 °C |
| Cc1ccccc1NC(=O)CN1C[C@@H](C)N(S(=O)(=O)c2cccc(C#N)c2)[C@@H](C)C1 [Example 55, cis-2-[4-(3-Cyanobenzenesulphonyl)-3,5-dimethylpiperazin-1-yl]-N-(2-methylphenyl)acetamide] | 152 to 153 °C |
| Cc1ccccc1NC(=O)CN1C[C@@H](C)N(S(=O)(=O)c2cccc([N+](=O)[O-])c2)[C@@H](C)C1 [Example 56, cis-N-(2-Methylphenyl)-2-[4-(3-nitrobenzenesulphonyl)-3,5-dimethylpiperazin-1-yl]-acetamide] | 163 to 164 °C |
| Cc1ccccc1NC(=O)CN1C[C@@H](C)N(S(=O)(=O)c2cccc(N)c2)[C@@H](C)C1 [Example 57, cis-2-[4-(3-Aminobenzenesulphonyl)-3,5-dimethylpiperazin-1-yl]-N-(2-methylphenyl)acetamide] | 202 to 203 °C |
| CC(=O)Nc1cccc(S(=O)(=O)N2[C@H](C)CN(CC(=O)Nc3ccccc3C)C[C@@H]2C)c1 [Example 62, cis-2-[4-(3-Acetylaminobenzenesulphonyl)-3,5-dimethylpiperazin-1-yl]-N-(2-methylphenyl)acetamide] | 236 to 238 °C |
| Cc1ccccc1NC(=O)CN1C[C@@H](C)N(S(=O)(=O)c2cccc(C(N)=O)c2)[C@@H](C)C1 [Example 63, cis-2-[4-(3-Aminocarbonylbenzenesulphonyl)-3,5-dimethylpiperazin-1-yl]-N-(2-methylphenyl)acetamide] | 124 to 125 °C |
| Cc1ccccc1NC(=O)CN1C[C@@H](C)N(S(=O)(=O)c2cccc(NS(C)(=O)=O)c2)[C@@H](C)C1 [Example 64, cis-2-[4-(3-Methanesulphonylaminobenzenesulphonyl)-3,5-dimethylpiperazin-1-yl]-N-(2-methylphenyl)acetamide] | 102 to 103 °C |
| Cc1ccccc1NC(=O)CN1C[C@@H](C)N(S(=O)(=O)c2cccc(C(=O)NCCN)c2)[C@@H](C)C1 [Example 71, cis-2-[4-(2-Aminoethylaminocarbonylbenzenesulphonyl)-3,5-dimethylpiperazin-1-yl]-N-(2-methylphenyl)acetamide] | 90 to 92 °C |
